Results: patent publication US9510598B2, “Nitrogen-containing heterocyclic compounds for plant disease control” (BAYER CROPSCIENCE AG, priority 2012, dated 2016)

system: not given; assay: not given; type: physicochemical; settings: HPLC on reversed phase columns, method [a]: pH 2.7, 0.1% formic acid in water / acetonitrile, linear gradient 10% to 95% acetonitrile

SMILES	log P
C#CCCNC(=O)C1(C)CC(c2ccc3ncc(C#C)cc3c2)=NO1 (racemic) [compound 355]	2.25[a]

same assay, conditions: HPLC on reversed phase columns, method [a]: pH 2.7, 0.1% formic acid in water and acetonitrile, linear gradient 10% to 95% acetonitrile

SMILES	log P
C#Cc1cnc2ccc(C3=NOC(C)(C(=O)NCc4cccc(CC)n4)C3)cc2c1 (stereo not shown) [compound 749]	1.67[a]
CC(C)c1ccnc(CNC(=O)C2(C)CC(c3ccc4ncc(Br)cc4c3)=NO2)c1 (stereo not shown) [compound 750]	2.05[a]
C#Cc1cnc2ccc(C3=NOC(C)(C(=O)NCc4cc(C#N)ccn4)C3)cc2c1 (stereo not shown) [compound 751]	2.20[a]
CCc1ccnc(CNC(=O)C2(C)CC(c3ccc4ncc(Br)cc4c3)=NO2)c1 (stereo not shown) [compound 752]	1.82[a]
C#Cc1cnc2ccc(C3=NOC(C)(C(=O)NCC4(C)CCC4)C3)cc2c1 (stereo not shown) [compound 753]	3.27[a]
CC1(C(=O)NCC2CC(F)(F)C2)CC(c2ccc3ncc(Br)cc3c2)=NO1 (stereo not shown) [compound 754]	2.98[a]
CC1(C(=O)NC2CC(F)(F)C2)CC(c2ccc3ncc(Br)cc3c2)=NO1 (stereo not shown) [compound 755]	2.86[a]
C#Cc1cnc2ccc(C3=NOC(C)(C(=O)NCC4CS(=O)(=O)CCO4)C3)cc2c1 (stereo not shown) [compound 756]	1.93[a]
CC1(CNC(=O)C2(C)CC(c3ccc4ncc(Br)cc4c3)=NO2)CCC1 (stereo not shown) [compound 757]	3.65[a]
C#Cc1cnc2ccc(C3=NOC(C)(C(=O)NCc4ccnc(O)c4)C3)cc2c1 (stereo not shown) [compound 758]	1.54[a]
CCC(C)Oc1cc(CNC(=O)C2(C)CC(c3ccc4ncc(Br)cc4c3)=NO2)ccn1 (stereo not shown) [compound 759]	3.48[a]
C#Cc1cnc2ccc(C3=NOC(C)(C(=O)NCc4ccnc(OC(C)CC)c4)C3)cc2c1 (stereo not shown) [compound 760]	3.06[a]
CC1(C(=O)NCc2ccnc(NC3CC3)c2)CC(c2ccc3ncc(Br)cc3c2)=NO1 (stereo not shown) [compound 761]	1.58[a]
C#Cc1cnc2ccc(C3=NOC(C)(C(=O)NCc4ccnc(C(F)(F)F)c4)C3)cc2c1 (stereo not shown) [compound 762]	2.64[a]
CC(C)Oc1cc(CNC(=O)C2(C)CC(c3ccc4ncc(Br)cc4c3)=NO2)ccn1 (stereo not shown) [compound 763]	3.09[a]
C#Cc1cnc2ccc(C3=NOC(C)(C(=O)NCc4ccnc(OC(C)C)c4)C3)cc2c1 (stereo not shown) [compound 764]	2.71[a]
CC1(C(=O)NCc2ccnc(O)c2)CC(c2ccc3ncc(Br)cc3c2)=NO1 (stereo not shown) [compound 765]	1.72[a]
C#Cc1cnc2ccc(C3=NOC(C)(C(=O)NCCc4ccc(C(F)(F)F)cc4Cl)C3)cc2c1 (stereo not shown) [compound 766]	3.76[a]
CC(NNC(=O)C1(C)CC(c2ccc3ncc(Br)cc3c2)=NO1)C1CC1 (stereo not shown) [compound 767]	2.51[a]
C#Cc1cnc2ccc(C3=NOC(C)(C(=O)NC(C4CC4)C4CC4)C3)cc2c1 (stereo not shown) [compound 768]	3.21[a]
CC1(C(=O)NCCc2ccc(C(F)(F)F)cc2Cl)CC(c2ccc3ncc(Br)cc3c2)=NO1 (stereo not shown) [compound 769]	4.21[a]
C#Cc1cnc2ccc(C3=NOC(C)(C(=O)NNC(C)C4CC4)C3)cc2c1 (stereo not shown) [compound 770]	2.21[a]

SMILES	log P
CC1(C(=O)N2CCOCC2)CC(c2ccc3ncc(Br)cc3c2)=NO1 (stereo not shown) [compound 771]	2.48[a]
C#Cc1cnc2ccc(C3=NOC(C)(C(=O)NCc4cnn(CC(F)(F)F)c4)C3)cc2c1 (stereo not shown) [compound 772]	2.34[a]
CC1(C(=O)NC(C2CC2)C2CC2)CC(c2ccc3ncc(Br)cc3c2)=NO1 (stereo not shown) [compound 773]	3.57[a]
C#Cc1cnc2ccc(C3=NOC(C)(C(=O)N4CCOCC4)C3)cc2c1 (stereo not shown) [compound 774]	2.18[a]
CC1(C(=O)NCC2CCC2)CC(c2ccc3ncc(Br)cc3c2)=NO1 (stereo not shown) [compound 775]	3.25[a]
C#Cc1cnc2ccc(C3=NOC(C)(C(=O)NC4CC(F)(F)C4)C3)cc2c1 (stereo not shown) [compound 776]	2.57[a]
CC1(C(=O)NCc2cnn(CC(F)(F)F)c2)CC(c2ccc3ncc(Br)cc3c2)=NO1 (stereo not shown) [compound 777]	2.60[a]
C#Cc1cnc2ccc(C3=NOC(C)(C(=O)NCC4CCC4)C3)cc2c1 (stereo not shown) [compound 778]	2.88[a]
C#Cc1cnc2ccc(C3=NOC(C)(C(=O)NCc4cncc(C#N)c4)C3)cc2c1 (stereo not shown) [compound 779]	2.10[a]
CN(C)c1ncccc1CNC(=O)C1(C)CC(c2ccc3ncc(Br)cc3c2)=NO1 (stereo not shown) [compound 780]	1.60[a]
C#Cc1cnc2ccc(C3=NOC(C)(C(=O)NCc4cncc(F)c4)C3)cc2c1 (stereo not shown) [compound 781]	2.13[a]
CC1(C(=O)NCc2cncc(C#N)c2)CC(c2ccc3ncc(Br)cc3c2)=NO1 (stereo not shown) [compound 782]	2.35[a]
C#Cc1cnc2ccc(C3=NOC(C)(C(=O)NCc4cccnc4F)C3)cc2c1 (stereo not shown) [compound 783]	2.23[a]
CC1(C(=O)NCc2cncc(F)c2)CC(c2ccc3ncc(Br)cc3c2)=NO1 (stereo not shown) [compound 784]	2.37[a]
C#Cc1cnc2ccc(C3=NOC(C)(C(=O)NCc4cccnc4OCC)C3)cc2c1 (stereo not shown) [compound 785]	2.84[a]
CC1(C(=O)NCc2cccnc2F)CC(c2ccc3ncc(Br)cc3c2)=NO1 (stereo not shown) [compound 786]	2.51[a]
C#Cc1cnc2ccc(C3=NOC(C)(C(=O)NCc4cnc(Cl)cn4)C3)cc2c1 (stereo not shown) [compound 787]	2.43[a]
CCOc1ncccc1CNC(=O)C1(C)CC(c2ccc3ncc(Br)cc3c2)=NO1 (stereo not shown) [compound 788]	3.21[a]
C#Cc1cnc2ccc(C3=NOC(C)(C(=O)NCc4cncc(Cl)n4)C3)cc2c1 (stereo not shown) [compound 789]	2.41[a]
CC1(C(=O)NCc2cnc(Cl)cn2)CC(c2ccc3ncc(Br)cc3c2)=NO1 (stereo not shown) [compound 790]	2.73[a]
C#Cc1cnc2ccc(C3=NOC(C)(C(=O)NCc4cncc(OC)n4)C3)cc2c1 (stereo not shown) [compound 791]	2.25[a]
CC1(C(=O)NCc2cncc(Cl)n2)CC(c2ccc3ncc(Br)cc3c2)=NO1 (stereo not shown) [compound 792]	2.71[a]

SMILES	log P
C#Cc1cnc2ccc(C3=NOC(C)(C(=O)NCc4cc(C(C)C)ccn4)C3)cc2c1 (stereo not shown) [compound 793]	1.84[a]
COc1cncc(CNC(=O)C2(C)CC(c3ccc4ncc(Br)cc4c3)=NO2)n1 (stereo not shown) [compound 794]	2.53[a]
CC1(C(=O)NCc2ccnc(C(F)(F)F)c2)CC(c2ccc3ncc(Br)cc3c2)=NO1 (stereo not shown) [compound 795]	2.96[a]
C#Cc1cnc2ccc(C3=NOC(C)(C(=O)NCc4ccnc(SC(C)(C)C)c4)C3)cc2c1 (stereo not shown) [compound 796]	3.02[a]
CC(C)(C)Sc1cc(CNC(=O)C2(C)CC(c3ccc4ncc(Br)cc4c3)=NO2)ccn1 (stereo not shown) [compound 797]	3.44[a]
C#Cc1cnc2ccc(C3=NOC(C)(C(=O)NCc4ccnc(SC)c4)C3)cc2c1 (stereo not shown) [compound 798]	2.32[a]
CSc1cc(CNC(=O)C2(C)CC(c3ccc4ncc(Br)cc4c3)=NO2)ccn1 (stereo not shown) [compound 799]	2.62[a]
C#Cc1cnc2ccc(C3=NOC(C)(C(=O)NCc4ccnc(N(C)C)c4)C3)cc2c1 (stereo not shown) [compound 800]	1.36[a]
CN(C)c1cc(CNC(=O)C2(C)CC(c3ccc4ncc(Br)cc4c3)=NO2)ccn1 (stereo not shown) [compound 801]	1.49[a]
C#Cc1cnc2ccc(C3=NOC(C)(C(=O)NCc4ccnc(F)c4)C3)cc2c1 (stereo not shown) [compound 802]	2.23[a]
CC1(C(=O)NCc2ccnc(F)c2)CC(c2ccc3ncc(Br)cc3c2)=NO1 (stereo not shown) [compound 803]	2.51[a]
C#Cc1cnc2ccc(C3=NOC(C)(C(=O)NCc4ccncc4F)C3)cc2c1 (stereo not shown) [compound 804]	2.02[a]
C#Cc1cnc2ccc(C3=NOC(C)(C(=O)NCc4cccnc4O)C3)cc2c1 (stereo not shown) [compound 805]	1.64[a]
C#Cc1cnc2ccc(C3=NOC(C)(C(=O)NCc4ccc(O)nc4)C3)cc2c1 (stereo not shown) [compound 806]	1.54[a]
CC1(C(=O)NCc2ccc(O)nc2)CC(c2ccc3ncc(Br)cc3c2)=NO1 (stereo not shown) [compound 807]	1.72[a]
C#Cc1cnc2ccc(C3=NOC(C)(C(=O)NCc4cccnc4N(C)C)C3)cc2c1 (stereo not shown) [compound 808]	1.43[a]
C#Cc1cnc2ccc(C3=NOC(C)(C(=O)NCc4ccnc(NC5CC5)c4)C3)cc2c1 (stereo not shown) [compound 809]	1.45[a]
CC1(C(=O)NCc2ccncc2F)CC(c2ccc3ncc(Br)cc3c2)=NO1 (stereo not shown) [compound 811]	2.27[a]
C#Cc1cnc2ccc(C3=NOC(C)(C(=O)NCc4cccnc4C#N)C3)cc2c1 (stereo not shown) [compound 812]	1.70[a]
C#Cc1cnc2ccc(C3=NOC(C)(C(=O)NCC4CC(F)(F)C4)C3)cc2c1 (stereo not shown) [compound 813]	2.71[a]
CC1(C(=O)NCc2cccnc2C#N)CC(c2ccc3ncc(Br)cc3c2)=NO1 (stereo not shown) [compound 814]	1.91[a]
CC1(C(=O)N(Cc2cc(F)cc3c2C(C)(C)CCC3)C2CC2)CC(c2ccc3ncc(Br)cc3c2)=NO1 (stereo not shown) [compound 815]	6.11[a]

same assay, conditions: method [a]: HPLC/LC-MS on reversed phase at pH 2.7, 0.1% formic acid in water / acetonitrile, gradient 10% to 95% acetonitrile

SMILES	log P
C#Cc1cnc2ccc(C3=NOC(C)(C(=O)NCC(OC)OC)C3)cc2c1 (racemic) [compound 366]	2.13[a]

system: Septoria tritici; assay: In vivo preventive test on Septoria tritici (leaf spot on wheat); settings: 500 ppm; wheat plants sprayed 24 hours before contamination; grading 21 to 28 days after contamination vs control plants
Method: Wheat plants (“Scipion” variety), sown in starter cups on a 50/50 peat soil-pozzolana substrate and grown at 22° C. (12 h)/20° C. (12 h), are treated at the 1-leaf stage (10 cm height) by spraying with the active ingredient prepared as described above. Plants, used as controls, are treated with the mixture of acetone/tween/DMSO/water not containing the active material. After 24 hours, the plants are contaminated by spraying the leaves with an aqueous suspension of cryopreserved Septoria tritici spores (500 000 spores per ml). […] Grading (% of efficacy) is carried out 21 to 28 days after the contamination, in comparison with the control plants.

SMILES	% of efficacy (protection)
CC(O)C1(C(=O)NCC2COC(C)(C)O2)CC(c2ccc3ncc(Br)cc3c2)=NO1 (mixture of isomers) [compound 555]	71%
Cc1cnc(CNC(=O)C2(C(C)O)CC(c3ccc4ncc(Br)cc4c3)=NO2)cn1 (mixture of isomers) [compound 562]	86%
C#CCCNC(=O)C1(C)CC(c2ccc3ncc(C#C)cc3c2)=NO1 (racemic) [compound 355]	100%
C#Cc1cnc2ccc(C3=NOC(C)(C(=O)NCC(OC)OC)C3)cc2c1 (racemic) [compound 366]	100%
CC1(C(=O)NC(C)(C#N)C2CC2)CC(c2ccc3ncc(Br)cc3c2)=NO1 (stereo not shown) [compound 301]	80%
